Experimental data reported in doi:10.1101/2024.08.19.608619, “Discovery of potent SARS-CoV-2 nsp3 macrodomain inhibitors uncovers lack of translation to cellular antiviral response” (bioRxiv, 2024).
Like-named read-outs stand apart in the source and are kept apart here.

Key:
Experiment in all cases: biochemical
Set-up in all cases: In vitro kinase panel profiling, per cent remaining kinase activity at 10 uM
PKA(h) = target: T1, PKA(h) (Homo sapiens, UniProt P17612); settings: atp_concentration=10, read-out: % of control remaining
T1 construct: gene PRKACA
Text: (§1) We derisk potential for off-target activity by profiling the compound in a CEREP panel, a standard secondary pharmacology assessment, as well as a kinase panel to derisk a potential hinge-binding motif in our leads, and a PARP panel to derisk activity against human […]. Reassuringly, the compounds are selective, with the only off-targets being moderate human CHRM2 and KOR receptors activity associated with ASAP-0011198.

Plk3(h) = Plk3(h) (Homo sapiens, UniProt Q9H4B4); settings: atp_concentration=70, read-out: % of control remaining
Chain of Plk3(h) (Q9H4B4 whole entry): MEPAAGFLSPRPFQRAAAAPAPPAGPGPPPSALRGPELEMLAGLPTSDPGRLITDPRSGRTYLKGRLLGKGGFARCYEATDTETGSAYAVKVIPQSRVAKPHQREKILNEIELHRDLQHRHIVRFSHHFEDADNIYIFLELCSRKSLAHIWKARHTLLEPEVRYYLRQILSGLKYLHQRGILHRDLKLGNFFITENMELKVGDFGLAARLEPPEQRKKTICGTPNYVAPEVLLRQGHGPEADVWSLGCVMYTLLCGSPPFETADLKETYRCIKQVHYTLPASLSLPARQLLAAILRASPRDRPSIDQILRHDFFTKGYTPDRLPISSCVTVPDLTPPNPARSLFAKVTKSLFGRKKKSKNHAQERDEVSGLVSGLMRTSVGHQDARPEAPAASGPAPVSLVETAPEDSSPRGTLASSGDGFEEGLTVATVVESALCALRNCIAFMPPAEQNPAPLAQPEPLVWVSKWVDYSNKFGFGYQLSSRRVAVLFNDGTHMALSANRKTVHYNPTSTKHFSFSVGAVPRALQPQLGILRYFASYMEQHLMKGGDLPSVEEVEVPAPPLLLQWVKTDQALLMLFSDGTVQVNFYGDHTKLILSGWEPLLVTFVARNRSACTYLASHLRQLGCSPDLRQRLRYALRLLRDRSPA
Text: as §1

Lyn(h) = Lyn(h) (Homo sapiens, UniProt P07948); settings: atp_concentration=70, read-out: % of control remaining
Chain of Lyn(h) (P07948 whole entry): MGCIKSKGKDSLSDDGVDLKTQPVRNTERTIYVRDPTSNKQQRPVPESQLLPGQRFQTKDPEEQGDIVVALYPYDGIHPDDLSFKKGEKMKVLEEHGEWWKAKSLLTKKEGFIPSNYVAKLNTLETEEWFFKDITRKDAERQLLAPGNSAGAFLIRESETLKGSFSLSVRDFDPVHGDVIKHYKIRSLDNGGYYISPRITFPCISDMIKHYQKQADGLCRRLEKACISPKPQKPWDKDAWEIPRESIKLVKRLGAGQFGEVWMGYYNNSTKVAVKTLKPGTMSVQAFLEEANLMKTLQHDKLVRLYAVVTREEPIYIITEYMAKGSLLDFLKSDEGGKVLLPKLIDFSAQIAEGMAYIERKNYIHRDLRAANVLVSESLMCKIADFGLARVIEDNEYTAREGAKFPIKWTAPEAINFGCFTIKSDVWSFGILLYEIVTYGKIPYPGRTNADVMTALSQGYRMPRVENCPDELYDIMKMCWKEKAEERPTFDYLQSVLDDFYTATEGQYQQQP
Text: as §1

Mnk2(h) = target: T2, Mnk2(h) (Homo sapiens, UniProt Q9HBH9); settings: atp_concentration=120, read-out: % of control remaining
T2 construct: gene MKNK2
T2 sequence (Q9HBH9 whole entry): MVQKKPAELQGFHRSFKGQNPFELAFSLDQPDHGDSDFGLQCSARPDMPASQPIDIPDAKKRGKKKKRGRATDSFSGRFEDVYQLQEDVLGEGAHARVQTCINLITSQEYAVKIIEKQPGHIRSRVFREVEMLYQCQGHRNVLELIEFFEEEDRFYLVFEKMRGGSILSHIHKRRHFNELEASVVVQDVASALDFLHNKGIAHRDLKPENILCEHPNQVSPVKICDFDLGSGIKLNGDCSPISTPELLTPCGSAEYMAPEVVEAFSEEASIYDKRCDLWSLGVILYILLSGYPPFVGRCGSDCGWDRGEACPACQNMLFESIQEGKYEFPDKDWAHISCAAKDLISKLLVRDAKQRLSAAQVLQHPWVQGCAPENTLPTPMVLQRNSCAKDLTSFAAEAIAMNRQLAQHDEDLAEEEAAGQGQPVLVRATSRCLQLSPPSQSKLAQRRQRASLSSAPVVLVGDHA
Text: as §1

MST1(h) = target: T3, MST1(h) (Homo sapiens, UniProt Q13043); settings: atp_concentration=90, read-out: % of control remaining
T3 construct: gene STK4
T3 sequence (Q13043 1-487): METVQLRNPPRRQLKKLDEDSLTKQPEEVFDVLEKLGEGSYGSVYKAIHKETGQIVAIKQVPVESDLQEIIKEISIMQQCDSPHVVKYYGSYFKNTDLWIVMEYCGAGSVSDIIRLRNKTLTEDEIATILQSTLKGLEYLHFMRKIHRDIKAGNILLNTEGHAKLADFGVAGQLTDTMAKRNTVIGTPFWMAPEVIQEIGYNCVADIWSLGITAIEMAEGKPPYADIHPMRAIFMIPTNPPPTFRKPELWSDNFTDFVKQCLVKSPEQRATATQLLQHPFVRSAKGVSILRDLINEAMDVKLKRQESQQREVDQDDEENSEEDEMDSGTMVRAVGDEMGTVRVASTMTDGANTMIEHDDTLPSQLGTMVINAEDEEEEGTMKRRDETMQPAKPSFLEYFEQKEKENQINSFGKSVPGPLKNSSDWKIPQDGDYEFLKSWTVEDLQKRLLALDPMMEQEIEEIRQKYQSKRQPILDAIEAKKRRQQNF
Text: as §1

PRAK(h) = target: T4, PRAK(h) (Homo sapiens, UniProt Q8IW41); settings: atp_concentration=15, read-out: % of control remaining
T4 construct: gene MAPKAPK5
T4 sequence (Q8IW41 1-473): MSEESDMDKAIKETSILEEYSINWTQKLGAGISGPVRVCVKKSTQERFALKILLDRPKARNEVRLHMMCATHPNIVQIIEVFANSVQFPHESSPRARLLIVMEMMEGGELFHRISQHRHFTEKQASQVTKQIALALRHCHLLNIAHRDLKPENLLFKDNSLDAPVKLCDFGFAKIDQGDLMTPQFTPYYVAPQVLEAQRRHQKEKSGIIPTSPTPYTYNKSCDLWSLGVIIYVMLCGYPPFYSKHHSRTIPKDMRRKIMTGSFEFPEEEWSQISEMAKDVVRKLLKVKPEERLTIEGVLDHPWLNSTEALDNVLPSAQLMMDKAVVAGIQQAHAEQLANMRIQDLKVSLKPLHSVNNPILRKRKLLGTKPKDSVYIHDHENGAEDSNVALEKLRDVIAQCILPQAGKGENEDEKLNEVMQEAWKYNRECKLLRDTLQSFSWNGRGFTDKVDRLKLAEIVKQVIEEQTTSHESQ
Text: as §1

Aurora-A(h) = target: T5, Aurora-A(h) (Homo sapiens, UniProt O14965); settings: atp_concentration=15, read-out: % of control remaining
T5 construct: gene AURKA
T5 sequence (O14965 1-403): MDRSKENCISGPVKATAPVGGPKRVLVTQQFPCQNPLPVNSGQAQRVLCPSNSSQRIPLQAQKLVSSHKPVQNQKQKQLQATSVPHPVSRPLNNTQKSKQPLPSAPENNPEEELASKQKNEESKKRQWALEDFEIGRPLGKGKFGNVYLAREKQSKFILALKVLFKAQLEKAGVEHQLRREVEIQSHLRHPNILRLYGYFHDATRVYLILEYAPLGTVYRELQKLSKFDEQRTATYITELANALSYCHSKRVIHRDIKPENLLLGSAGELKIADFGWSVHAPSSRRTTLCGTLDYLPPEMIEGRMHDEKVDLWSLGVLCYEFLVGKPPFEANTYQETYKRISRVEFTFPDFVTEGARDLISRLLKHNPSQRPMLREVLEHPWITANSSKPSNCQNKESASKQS
Text: as §1

CDK7/cyclinH/MAT1(h) = CDK7/cyclinH/MAT1(h) (Homo sapiens, UniProt P50613); settings: atp_concentration=90, read-out: % of control remaining
Chain of CDK7/cyclinH/MAT1(h) (P50613 whole entry): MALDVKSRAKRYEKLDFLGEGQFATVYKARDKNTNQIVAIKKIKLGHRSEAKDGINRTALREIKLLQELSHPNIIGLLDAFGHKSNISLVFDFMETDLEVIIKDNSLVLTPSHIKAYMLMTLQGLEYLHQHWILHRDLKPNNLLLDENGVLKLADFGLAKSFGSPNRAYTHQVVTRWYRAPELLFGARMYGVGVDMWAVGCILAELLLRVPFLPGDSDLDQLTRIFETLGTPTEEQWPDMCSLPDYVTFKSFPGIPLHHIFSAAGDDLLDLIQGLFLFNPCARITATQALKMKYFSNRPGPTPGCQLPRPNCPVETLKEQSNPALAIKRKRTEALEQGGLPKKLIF
Chain of CDK7/cyclinH/MAT1(h) (P51946 whole entry partner): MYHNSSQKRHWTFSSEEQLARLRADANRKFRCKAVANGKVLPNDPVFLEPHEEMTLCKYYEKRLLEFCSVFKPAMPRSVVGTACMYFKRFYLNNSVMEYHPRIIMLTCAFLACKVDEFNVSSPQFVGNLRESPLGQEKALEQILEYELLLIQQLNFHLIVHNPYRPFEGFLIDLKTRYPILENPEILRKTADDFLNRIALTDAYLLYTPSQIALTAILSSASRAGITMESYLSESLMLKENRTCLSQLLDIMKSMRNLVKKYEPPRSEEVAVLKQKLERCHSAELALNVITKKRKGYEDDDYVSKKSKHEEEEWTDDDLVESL
Chain of CDK7/cyclinH/MAT1(h) (P51948 whole entry partner): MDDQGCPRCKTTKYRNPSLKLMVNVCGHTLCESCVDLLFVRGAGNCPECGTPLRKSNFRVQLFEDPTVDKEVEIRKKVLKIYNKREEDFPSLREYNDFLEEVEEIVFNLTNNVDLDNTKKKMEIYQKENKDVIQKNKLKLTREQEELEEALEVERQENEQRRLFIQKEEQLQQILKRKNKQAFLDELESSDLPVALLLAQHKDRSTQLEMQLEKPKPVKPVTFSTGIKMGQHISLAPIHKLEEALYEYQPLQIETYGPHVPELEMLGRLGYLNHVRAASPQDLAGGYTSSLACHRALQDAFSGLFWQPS
Text: as §1

ALK(h) = ALK(h) (Homo sapiens, UniProt Q9UM73); settings: atp_concentration=200, read-out: % of control remaining
Chain of ALK(h) (Q9UM73 whole entry): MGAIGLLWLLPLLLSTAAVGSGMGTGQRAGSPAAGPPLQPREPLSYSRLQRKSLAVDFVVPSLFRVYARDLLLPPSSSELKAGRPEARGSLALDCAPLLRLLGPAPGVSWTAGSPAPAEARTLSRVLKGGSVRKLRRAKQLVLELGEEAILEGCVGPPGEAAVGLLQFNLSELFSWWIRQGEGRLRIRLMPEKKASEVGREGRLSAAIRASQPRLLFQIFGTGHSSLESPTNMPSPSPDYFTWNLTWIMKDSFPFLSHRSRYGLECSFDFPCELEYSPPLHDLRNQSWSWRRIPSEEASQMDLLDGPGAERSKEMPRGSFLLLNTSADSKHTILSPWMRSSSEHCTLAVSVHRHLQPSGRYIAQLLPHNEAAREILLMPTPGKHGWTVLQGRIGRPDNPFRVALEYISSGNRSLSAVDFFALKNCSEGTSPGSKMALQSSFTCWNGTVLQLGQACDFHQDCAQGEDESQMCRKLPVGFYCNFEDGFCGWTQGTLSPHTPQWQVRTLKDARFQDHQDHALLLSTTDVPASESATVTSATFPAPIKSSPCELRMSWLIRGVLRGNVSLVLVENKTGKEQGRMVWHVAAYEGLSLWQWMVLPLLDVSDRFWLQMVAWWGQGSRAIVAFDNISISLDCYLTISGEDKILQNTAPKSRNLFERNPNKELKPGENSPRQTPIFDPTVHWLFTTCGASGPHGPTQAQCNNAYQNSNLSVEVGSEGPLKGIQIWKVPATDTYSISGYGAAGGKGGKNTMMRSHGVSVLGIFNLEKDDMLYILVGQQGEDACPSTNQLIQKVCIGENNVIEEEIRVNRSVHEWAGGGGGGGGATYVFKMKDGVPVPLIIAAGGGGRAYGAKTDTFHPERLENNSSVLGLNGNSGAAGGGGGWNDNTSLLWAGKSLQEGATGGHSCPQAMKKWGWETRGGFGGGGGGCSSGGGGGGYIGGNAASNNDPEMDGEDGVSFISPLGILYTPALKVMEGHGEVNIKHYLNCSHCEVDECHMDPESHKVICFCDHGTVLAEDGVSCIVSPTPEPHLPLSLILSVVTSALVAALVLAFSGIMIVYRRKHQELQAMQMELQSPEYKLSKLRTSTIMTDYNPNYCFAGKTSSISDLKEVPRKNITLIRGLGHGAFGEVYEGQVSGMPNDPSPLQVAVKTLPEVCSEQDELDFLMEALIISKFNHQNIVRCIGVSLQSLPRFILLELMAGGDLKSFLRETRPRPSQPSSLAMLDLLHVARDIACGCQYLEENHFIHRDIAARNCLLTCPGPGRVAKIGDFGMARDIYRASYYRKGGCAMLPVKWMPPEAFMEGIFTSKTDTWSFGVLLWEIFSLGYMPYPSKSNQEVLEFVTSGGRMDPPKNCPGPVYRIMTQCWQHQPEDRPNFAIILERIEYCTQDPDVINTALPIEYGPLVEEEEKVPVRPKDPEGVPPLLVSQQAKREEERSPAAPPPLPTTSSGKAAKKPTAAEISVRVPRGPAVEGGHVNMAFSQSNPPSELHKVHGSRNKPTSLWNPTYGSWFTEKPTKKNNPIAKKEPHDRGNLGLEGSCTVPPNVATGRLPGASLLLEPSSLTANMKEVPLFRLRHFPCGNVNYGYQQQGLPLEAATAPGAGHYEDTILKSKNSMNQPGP
Text: as §1

## Cn1ncc(-c2cc3c(N[C@@H](c4ccc5c(n4)OCCO5)C(C)(C)C)ncnc3[nH]2)c1C#N [ASAP-0011221]
PKA(h); batch_name=ASAP-0011221-002
  remaining activity at 10 µM: 95%
Plk3(h); batch_name=ASAP-0011221-002
  remaining activity at 10 µM: 77%
Lyn(h); batch_name=ASAP-0011221-002
  remaining activity at 10 µM: 101%
Mnk2(h); batch_name=ASAP-0011221-002
  remaining activity at 10 µM: 100%
MST1(h); batch_name=ASAP-0011221-002
  remaining activity at 10 µM: 115%
PRAK(h); batch_name=ASAP-0011221-002
  remaining activity at 10 µM: 86%
Aurora-A(h); batch_name=ASAP-0011221-002
  remaining activity at 10 µM: 95%
CDK7/cyclinH/MAT1(h); batch_name=ASAP-0011221-002
  remaining activity at 10 µM: 108%
ALK(h); batch_name=ASAP-0011221-002
  remaining activity at 10 µM: 117%

## Cc1nn(C)cc1-c1cc2c(NC(c3ccc4c(c3)S(=O)(=O)CCC4)C(C)C)ncnc2[nH]1 (stereo not drawn) [ASAP-0011446]
PKA(h); batch_name=ASAP-0011446-002
  remaining activity at 10 µM: 95%
Plk3(h); batch_name=ASAP-0011446-002
  remaining activity at 10 µM: 104%
Lyn(h); batch_name=ASAP-0011446-002
  remaining activity at 10 µM: 48%
Mnk2(h); batch_name=ASAP-0011446-002
  remaining activity at 10 µM: 99%
MST1(h); batch_name=ASAP-0011446-002
  remaining activity at 10 µM: 115%
PRAK(h); batch_name=ASAP-0011446-002
  remaining activity at 10 µM: 82%
Aurora-A(h); batch_name=ASAP-0011446-002
  remaining activity at 10 µM: 55%
CDK7/cyclinH/MAT1(h); batch_name=ASAP-0011446-002
  remaining activity at 10 µM: 93%
ALK(h); batch_name=ASAP-0011446-002
  remaining activity at 10 µM: 99%

## C[C@H](C(=O)O)[C@@H](NC(=O)c1ncnc2[nH]ccc12)c1ccc(Br)cc1 [ASAP-0014722]
PKA(h); batch_name=ASAP-0014722-002
  remaining activity at 10 µM: 87%
Plk3(h); batch_name=ASAP-0014722-002
  remaining activity at 10 µM: 98%
Lyn(h); batch_name=ASAP-0014722-002
  remaining activity at 10 µM: 94%
Mnk2(h); batch_name=ASAP-0014722-002
  remaining activity at 10 µM: 110%
MST1(h); batch_name=ASAP-0014722-002
  remaining activity at 10 µM: 121%
PRAK(h); batch_name=ASAP-0014722-002
  remaining activity at 10 µM: 88%
Aurora-A(h); batch_name=ASAP-0014722-002
  remaining activity at 10 µM: 72%
CDK7/cyclinH/MAT1(h); batch_name=ASAP-0014722-002
  remaining activity at 10 µM: 99%
ALK(h); batch_name=ASAP-0014722-002
  remaining activity at 10 µM: 99%

## COc1ccc([C@H](Cc2nnn[nH]2)NC(=O)c2ncnc3[nH]ccc23)cc1 [ASAP-0015381]
PKA(h); batch_name=ASAP-0015381-001
  remaining activity at 10 µM: 88%
Plk3(h); batch_name=ASAP-0015381-001
  remaining activity at 10 µM: 102%
Lyn(h); batch_name=ASAP-0015381-001
  remaining activity at 10 µM: 108%
Mnk2(h); batch_name=ASAP-0015381-001
  remaining activity at 10 µM: 115%
MST1(h); batch_name=ASAP-0015381-001
  remaining activity at 10 µM: 127%
PRAK(h); batch_name=ASAP-0015381-001
  remaining activity at 10 µM: 109%
Aurora-A(h); batch_name=ASAP-0015381-001
  remaining activity at 10 µM: 84%
CDK7/cyclinH/MAT1(h); batch_name=ASAP-0015381-001
  remaining activity at 10 µM: 107%
ALK(h); batch_name=ASAP-0015381-001
  remaining activity at 10 µM: 106%
